For data set [1], the target named is SOS1 and KRAS G12C (Homo sapiens (Human), UniProt Q07889). The experiment in a line: KRAS::SOS1 AlphaScreen binding assay (KRAS G12C). The conditions noted are these: average of at least two measurements. The method, then:
(§1) Low IC50 values are indicative of high potency of the SOS1 inhibitor compound in this assay setting:
(§2) • GST-tagged SOS1 (564_1049_GST_TEV_ECO) produced in-house • 6xHis-Tev-K-RasG12D/G12C(1-169)Avi produced in-house • GDP (Sigma Cat No G7127) • AlphaLISA Glutathione Acceptor Beads (PerkinElmer, Cat No AL109) • AlphaScreen Streptavidin Donor Beads (PerkinElmer Cat No 6760002) • Assay plates: Proxiplate-384 PLUS, white (PerkinElmer, Cat No 6008289)
(§3) [formula] • KRAS::SOS1 GDP mix: • 7.5 nM (final assay concentration) K-RasG12C, 10 nM (final assay concentration) K-RasG12D, 10 μM (final assay concentration) GDP and 5 nM (final assay concentration) GST-SOS1 are mixed in assay buffer prior to use and kept at rt. Bead mix: • AlphaLISA Glutathione Acceptor Beads and AlphaScreen Streptavidin Donor Beads are mixed in the dark in assay buffer at a concentration of 10 μg/mL (final assay concentration) each prior to use and kept at rt.
(§4) Compounds are diluted to a final start concentration of 100 μM and are tested in duplicate. Assay-ready plates (ARPs) are generated using an Access Labcyte Workstation with a Labcyte Echo 550 or 555 acoustic dispenser. For compound a start concentration of 100 μM, 150 nL of compound solution is transferred per well in 11 concentrations in duplicate with serial 1:5 dilutions.
(§5) The assay is run using a fully automated robotic system in a darkened room below 100 Lux. 10 μL of KRAS::SOS1 GDP mix is added into columns 1-24 to the 150 nL of compound solution (final dilution in the assay 1:100, final DMSO concentration 1%).
(§6) After a 30 minute incubation time, 5 μL of bead mix is added into columns 1-23. Plates are kept at rt in a darkened incubator. After a further 60 minutes incubation, the signal is measured using a PerkinElmer Envision HTS Multilabel Reader using the AlphaScreen specifications from PerkinElmer. Each plate contains the following controls:
(§7) diluted DMSO+KRAS::SOS1 GDP mix+bead mix
(§8) diluted DMSO+KRAS::SOS1 GDP mix
(§9) Result calculation: IC50 values are calculated and analyzed using a 4 parametric logistic model.
(§10) Table 1: Inhibition values for KRAS G12C as well as for KRAS G12D. […] The value indicates an average value of at least two measurements.
For orientation: In Alpha technology, singlet oxygen from a donor bead excites a nearby acceptor bead.

Data set [2] deals with human hepatocytes. The data set can be described thus: Metabolic stability in human hepatocytes. The conditions noted are these: 1 μM test compound, 50% human serum, percentage of liver blood flow.
Method: The metabolic degradation of a test compound is performed with hepatocytes in suspension. After recovery from cryopreservation, human hepatocytes are diluted in Dulbecco's modified eagle medium (supplemented with 3.5 μg glucagon/500 mL, 2.5 mg insulin/500 mL, 3.75 mg hydrocortisone/500 mL, 50% human serum) to obtain a final cell density of 1.0×10^6 cells/mL. Following a preincubation in a cell culture incubator (37° C., 10% CO2), test compound dissolved in DMSO is mixed with the hepatocyte suspension, resulting in a final test compound concentration of 1 μM and a final DMSO concentration of 0.05%.
The cell suspension is incubated at 37° C. (cell culture incubator, horizontal shaker) and samples are removed from the incubation after 0, 0.5, 1, 2, 4 and 6 hours. Samples are quenched with acetonitrile (containing internal standard) and pelleted by centrifugation. The supernatant is transferred to a deep-well plate and prepared for analysis of decline of parent compound by HPLC-MS/MS.
The percentage of remaining test compound is calculated using the peak area ratio (test compound/internal standard) of each incubation time point relative to the time point 0 peak area ratio. The log-transformed data are plotted versus incubation time, and the absolute value of the slope obtained by linear regression analysis is used to estimate in vitro half-life (T1/2).
CL_[sequence]_IN VIVO[mL/min/kg]=(CL_[sequence][μL/min/10^6cells]×hepatocellularity[10^6cells/g liver]×liver factor[g/kg body weight])/1000
Hepatic in vivo blood clearance (CL) is predicted according to the well-stirred liver model considering an average liver blood flow (QH) of 20.7 mL/min/kg:
CL[mL/min/kg]=CL_[sequence]_IN VIVO[mL/min/kg]×hepatic blood flow[mL/min/kg]/(CL_[sequence]_IN VIVO[mL/min/kg]+hepatic blood flow[mL/min/kg])
Results are expressed as percentage of hepatic blood flow:
QH[%]=CL[mL/min/kg]/hepatic blood flow[mL/min/kg])
Data set [3] addresses SOS1 and KRAS G12D (Homo sapiens (Human), UniProt Q07889). The data set can be described thus: KRAS::SOS1 AlphaScreen binding assay (KRAS G12D). The conditions noted are these: average of at least two measurements. On the procedure:
as §1, §2, §3, §4, §5, §6, §7, §8, §9, §10

In data set [4] the target is CYP3A4 (Homo sapiens (Human), UniProt P08684). The data set can be described thus: Mechanism-based inhibition of CYP3A4 assay (MBI 3A4). The class given is in vitro ADME. As to conditions: human liver microsomes, midazolam substrate, hydroxy-midazolam formation after 30 min preincubation relative to 0 min; for inhibition at 30 min: human, probe midazolam 15 μM (hydroxy-midazolam formation), read-out: MBI inhibition % ctrl. [%] with MDZ. The method, then: Mechanism-Based Inhibition of CYP3A4 assay (MBI 3A4): The mechanism-based inhibition towards CYP3A4 is assayed in human liver microsomes with midazolam as substrate. The test compounds and water control (wells w/o test compound) are preincubated in presence of NADPH (1 mM) with human liver microsomes (0.2 mg/mL) at a concentration of 0, 5 and 25 μM for 0, 10 and 30 min. After preincubation, the incubate is diluted 1:10 (to 0.02 mg/mL) and the substrate midazolam (15 μM) is added for the main incubation (10 min). The main incubation is quenched with ACN and the formation of hydroxy-midazolam is quantified via LC/MS-MS. The formation of hydroxy-midazolam from the 30 min preincubation relative to the formation from the 0 min preincubation is used as a readout. Values of less than 100% mean that the substrate midazolam is metabolized to a lower extent upon 30 min preincubation compared to 0 min preincubation. In general, low effects upon 30 min preincubation are desired (corresponding to values close to 100%/not different to the values determined with water control).
CYP3A4, sequence (P08684 whole entry): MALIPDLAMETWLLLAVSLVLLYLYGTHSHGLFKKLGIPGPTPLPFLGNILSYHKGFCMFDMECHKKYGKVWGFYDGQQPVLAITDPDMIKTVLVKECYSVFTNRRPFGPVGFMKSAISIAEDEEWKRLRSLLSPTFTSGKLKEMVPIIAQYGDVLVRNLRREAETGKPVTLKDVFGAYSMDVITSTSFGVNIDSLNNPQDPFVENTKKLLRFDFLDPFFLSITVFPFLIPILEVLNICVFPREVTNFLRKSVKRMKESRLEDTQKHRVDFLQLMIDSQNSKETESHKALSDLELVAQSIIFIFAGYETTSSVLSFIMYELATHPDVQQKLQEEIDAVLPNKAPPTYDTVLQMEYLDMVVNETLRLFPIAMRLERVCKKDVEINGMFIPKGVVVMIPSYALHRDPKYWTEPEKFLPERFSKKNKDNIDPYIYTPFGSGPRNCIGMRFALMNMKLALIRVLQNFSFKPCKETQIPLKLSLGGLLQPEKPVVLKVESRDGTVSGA
Table 5: Mechanism-based inhibition of P450 isoenzyme 3A4 with midazolam as substrate.
(Liver microsomes are a subcellular fraction often used to study metabolism.)

For data set [5], the target named is P450 3A4 (Homo sapiens (Human), UniProt P08684). The data set can be described thus: Cytochrome P450 isoenzyme inhibition assay (P450 3A4, midazolam). The class given is in vitro ADME. The conditions noted are these: human liver microsomes, Midazolam as substrate; read-out: CYP3A4 inhibition IC50. On the procedure:
For the following cytochrome P450 isoenzymes, these substrates and metabolic reactions are monitored: P450 3A4: hydroxylation of Midazolam (MDZ).
The final incubation volume contains TRIS buffer (0.1 M), MgCl2 (5 mM), a certain concentration of human liver microsomes dependent on the P450 isoenzyme measured (P450 3A4: 0.1 mg/ml) and a certain concentration of the individual substrate for each isoenzyme (P450 3A4: Midazolam 5 μM).
The effect of the test compound is determined at five different concentrations in duplicate (e.g. highest concentration 50 μM with subsequent serial 1:4 dilutions) or without test compound (high control). Following a short preincubation period, reactions are started with the cofactor (NADPH, 1 mM) and stopped by cooling the incubation down to 8° C. and subsequently by addition of one volume of ACN. An internal standard solution—usually the stable isotope of the formed metabolite—is added after quenching of incubations. Peak area analyte (=metabolite formed) and internal standard is determined by LC-MS/MS. The resulting peak area ratio analyte to internal standard in these incubations is compared to a control activity containing no test compound. Within each of the assay runs, the IC50 of a positive control inhibitor dependent on the P450 isoenzyme measured (P450 3A4: ketoconazole) is determined. The assay results are plotted against compound concentrations to calculated IC50 values (half maximal inhibitory concentrations) for inhibitory compounds utilizing Software IDBS E-WorkBook.
Table 4: Inhibition of P450 isoenzyme 3A^4.

The subject of data set [6] is ERK phosphorylation in NCI-H358 SOS2 KO cells (KRAS G12C). The data set can be described thus: Erk phosphorylation assay. The class given is cell-based, human. The conditions noted are these: EGF stimulated, average of at least two measurements, read-out: pERK IC50. On the procedure:
Low IC50 values are indicative of high potency of the SOS1 inhibitor compounds in this assay setting.
ERK phosphorylation assays are performed using the following human cell line: • NCI-H358 SOS2 KO (Hofmann, Gmachl, Ramharter et al, Cancer Discov. 2021, 11(1):142-15): human lung cancer with a KRAS G12C mutation;
NCI-H358 SOS2 KO are seeded at 50000 cells per well in 60 μL of DMEM with 2% FBS, in Greiner TC 384 plates. The cells are incubated overnight in an incubator at 37° C. and 5% CO2 in a humidified atmosphere. 60 nL compound solution (10 mM DMSO stock solution) is then added using a Beckman Coulter Labcyte Echo 550 device. After 50 min incubation in the aforementioned incubator, 5 nl EGF are added to each well for a final concentration of approx. 8 ng/mL using a Beckman Coulter Labcyte Echo 550 device and cells are incubated for another 10-15 minutes before lysis. The medium is removed, and the cells are lysed by addition of 20 μL of 1.6-fold lysis buffer from the AlphaLISA SureFire Ultra pERK1/2 (Thr202/Tyr204) Assay Kit with added protease inhibitors. After 20 minutes of incubation at rt with shaking, 6 μL of each lysate sample is transferred to a 384-well Proxiplate and analyzed for pERK (Thr202/Tyr204) with the AlphaLISA SureFire Ultra pERK1/2 (Thr202/Tyr204) Assay Kit. 3 μL Acceptor Mix and 3 μL Donor Mix are added under subdued light and incubated for 2 h at rt in the dark, before the signal is measured on a Perkin Elmer Envision plate reader using 384 AlphaScreen settings for Proxiplates. Data are fitted by iterative calculation with variable hill slope. The sigmoidal curve slope is fitted using a default fitting curve to ascertain IC50 values.
Table 2: Erk Phosphorylation assay. The value indicates an average value of at least two measurements.

Setting [7] is: Homo sapiens, NCI-H358, NCI-H358 SOS2 KO cells.

The IC50 is the concentration that inhibits the measured activity by half. By inhibition is commonly meant the change of the read-out against control, counted positive when it falls.

Molecules are shown by their SMILES. Like-named read-outs stand apart in the source and are kept apart here.

P450 3A4, sequence (P08684 whole entry): as above
SOS1 and KRAS G12D, sequence (Q07889 564-1049, stated change not applied): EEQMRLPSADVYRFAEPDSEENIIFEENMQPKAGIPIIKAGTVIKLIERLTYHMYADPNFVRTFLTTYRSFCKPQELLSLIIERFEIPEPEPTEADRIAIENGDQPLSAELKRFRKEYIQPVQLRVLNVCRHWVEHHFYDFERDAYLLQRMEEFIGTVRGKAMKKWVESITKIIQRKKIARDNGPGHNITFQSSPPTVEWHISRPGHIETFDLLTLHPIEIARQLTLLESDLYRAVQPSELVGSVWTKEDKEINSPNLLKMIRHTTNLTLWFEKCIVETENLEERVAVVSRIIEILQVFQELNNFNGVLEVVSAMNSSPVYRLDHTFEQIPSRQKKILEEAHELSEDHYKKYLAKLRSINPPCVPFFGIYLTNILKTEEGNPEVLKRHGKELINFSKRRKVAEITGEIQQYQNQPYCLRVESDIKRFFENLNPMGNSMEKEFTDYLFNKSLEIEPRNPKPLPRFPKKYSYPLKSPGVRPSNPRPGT
SOS1 and KRAS G12C, sequence (Q07889 564-1049, stated change not applied): as above

As to `C[C@@H](NC(=O)c1cc(N2CCC(N3CCCC(O)CC3)CC2)c2ncnn2c1)c1cccc(C(F)F)c1F` (single isomer, unassigned) [Example E17b], the IC50 in data set [1] is 38 nM; in data set [3], 32 nM; in data set [5], > 50000 nM; in data set [6] (NCI-H358 SOS2 KO cells) it was 201 nM. Moreover, the “Hepatic clearance - QH[%] in human hepatocytes” value (“Hepatic clearance - QH[%]” for short) in data set [2] came out at 30%. In data set [4], the inhibition at 30 min worked out at 98%.
Take `C[C@@H](NC(=O)c1cc(N2CCC(O)(C3CCCN3)CC2)c2ncnn2c1)c1cccc(C(F)F)c1F` (single isomer, unassigned) [Example E38a]: the IC50 is 66 nM in data set [1], 45 nM in data set [3], > 50000 nM in data set [5] and 112 nM in data set [6] (setting [7]). Besides, the “Hepatic clearance - QH[%]” value in data set [2] is on record as 10%. Also, in data set [4], the inhibition at 30 min came out at 94%.
`C[C@@H](NC(=O)c1cc(N2CCC(O)(C3CCCN3)CC2)c2ncnn2c1)c1cccc(C(F)F)c1F` (single isomer, unassigned) [Example E38b]: the 50% inhibitory concentration (IC50) in data set [1] was 59 nM; in data set [3], 41 nM; in data set [5], > 50000 nM; in data set [6] (NCI-H358 SOS2 KO cells) it was 217 nM. The “Hepatic clearance - QH[%]” value in data set [2] came to 11%. In addition, the “MBI inhibition % ctrl. [%] with MDZ” value in data set [4] is on record as 86%.
As for `C[C@@H](NC(=O)c1cc(N2CCC(N3CCCC(O)CC3)CC2)c2ncnn2c1)c1cccc(C(F)(F)F)c1F` (single isomer, unassigned) [Example E43a], the half-maximal inhibitory concentration (IC50) in data set [1] was 42 nM; in data set [3], 40 nM; in data set [5], > 50000 nM; in data set [6] (NCI-H358 SOS2 KO cells), 46 nM. Moreover, in data set [2], the “Hepatic clearance - QH[%]” value turned out to be 25%. Further, the inhibition at 30 min in data set [4] stood at 91%.
Take `C[C@@H](NC(=O)c1cc(N2CCC(N3CCCC(O)CC3)CC2)c2ncnn2c1)c1cccc(C(F)(F)F)c1F` (single isomer, unassigned) [Example E43b]: the IC50 was 34 nM in data set [1], 35 nM in data set [3], > 50000 nM in data set [5] and 101 nM in data set [6] (NCI-H358 SOS2 KO cells). The “MBI inhibition % ctrl. [%] with MDZ” value in data set [4] was determined as 94%.
Regarding `C[C@@H](NC(=O)c1cc(N2CCC(N3CCCC(C)(O)C3)CC2)c2ncnn2c1)c1cccc(C(F)(F)F)c1F` (single isomer, unassigned) [Example E47a], the half-inhibitory concentration (IC50) was 96 nM in data set [1], 99 nM in data set [3], > 50000 nM in data set [5] and 162 nM in data set [6] (setting [7]). In addition, the “Hepatic clearance - QH[%]” value in data set [2] was determined as 30%. For the same compound, the inhibition at 30 min in data set [4] was 97%.
For `C[C@@H](NC(=O)c1cc(N2CCC(N3CCCC(C)(O)C3)CC2)c2ncnn2c1)c1cccc(C(F)(F)F)c1F` (single isomer, unassigned) [Example E47b], the half-maximal inhibitory concentration (IC50) in data set [1] was 41 nM; in data set [3], 45 nM; in data set [5], > 50000 nM; in data set [6] (NCI-H358 SOS2 KO cells), 198 nM. Also, the “Hepatic clearance - QH[%]” value in data set [2] was determined as 28%. The “MBI inhibition % ctrl. [%] with MDZ” value in data set [4] was 88%.
As to `C[C@@H](NC(=O)c1cc(N2CCC(NC3COCC3O)CC2)c2ncnn2c1)c1cccc(C(F)F)c1F` (single isomer, unassigned) [Example cis-E16a], the half-maximal inhibitory concentration (IC50) was 45 nM in data set [1], 41 nM in data set [3], > 50000 nM in data set [5] and 320 nM in data set [6] (setting [7]). Besides, the “Hepatic clearance - QH[%]” value in data set [2] turned out to be 32%. The inhibition at 30 min in data set [4] stood at 92%.
On to `C[C@@H](NC(=O)c1cc(N2CCC(NC3COCC3O)CC2)c2ncnn2c1)c1cccc(C(F)F)c1F` (single isomer, unassigned) [Example cis-E16b], for which the IC50 in data set [1] is 26 nM; in data set [3], 19 nM; in data set [5] it was > 50000 nM; in data set [6] (NCI-H358 SOS2 KO cells), 316 nM. Also, the “Hepatic clearance - QH[%]” value in data set [2] was 24%. Also, in data set [4], the “MBI inhibition % ctrl. [%] with MDZ” value is listed as 87%.
As for `C[C@@H](NC(=O)c1cc(N2CC3CCC(C2)N3C)c2nncn2c1)c1cccc(C(F)(F)F)c1F` [Example E76], the 50% inhibitory concentration (IC50) is 49 nM in data set [1], 36 nM in data set [3], > 50000 nM in data set [5] and 230 nM in data set [6] (setting [7]). In data set [4], the inhibition at 30 min is 84%.
The matching figures for `CC(C)N1CC=C(c2cc(C(=O)N[C@H](C)c3cccc(C(F)(F)F)c3F)cn3cnnc23)CC1` [Example E83]: 30 nM, 26 nM, > 50000 nM, 132 nM and 86%.

The record behind these values is patent US20250313560A1, “Novel bicyclic benzylamido pyridine derivatives as SOS1 inhibitors” (Boehringer Ingelheim International GmbH, priority 2024, published 2025).
